Measured values as given in patent publication US8435978B2, “Substituted sulfonamide compounds” (Gruenenthal GmbH, priority 2006, dated 2013).

What was measured:
human B1R receptor = biological target: T1, human B1R receptor (Homo sapiens, UniProt P46663); experiment: Functional study on the bradykinin receptor 1 (B1R), FLIPR Ca2+ assay, hB1R cells; format: cell-based; details: agonist Lys-Des-Arg9-bradykinin 0.5 nM, % inhibition compared with the maximum achievable inhibition; for inhibition at 10 µM: CHO-K1, test substance 10 μM, read-out: B1R Antagonism, human [10 μM] % Inhibition; for B1R Antagonism, human [10 μM] % Inhibition: test substance 10 μM, hB1R CHO K1 cells
T1 construct: host or cells: CHO K1 cells (Chinese hamster ovary), stably transfected
T1 sequence (P46663 1-353): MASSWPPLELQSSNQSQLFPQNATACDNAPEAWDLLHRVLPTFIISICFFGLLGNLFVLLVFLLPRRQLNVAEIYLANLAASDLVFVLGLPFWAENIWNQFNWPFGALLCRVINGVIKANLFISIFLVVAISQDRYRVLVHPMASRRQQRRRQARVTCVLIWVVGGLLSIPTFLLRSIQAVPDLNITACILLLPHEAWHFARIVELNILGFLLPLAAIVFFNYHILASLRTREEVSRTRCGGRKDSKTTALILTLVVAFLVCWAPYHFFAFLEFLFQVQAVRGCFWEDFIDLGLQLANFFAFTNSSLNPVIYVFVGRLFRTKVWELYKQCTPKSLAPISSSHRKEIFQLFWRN
In short: (§1)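 Cells were dye-loaded 60 min at 37 °C, equilibrated 20 min at room temperature, then given 10 μM compound. Ten minutes later the species-matched agonist was added (0.5 nM Lys-Des-Arg9-bradykinin, human; 100 nM Des-Arg9-bradykinin, rat) and Ca2+ influx suppression expressed as % of maximum inhibition.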

B1R receptor of the rat = biological target: T2, B1R receptor of the rat (Rattus norvegicus, UniProt P97583); experiment: Functional study on the bradykinin receptor 1 (B1R), FLIPR Ca2+ assay, rB1R cells; format: cell-based; details: agonist Des-Arg9-bradykinin 100 nM, % inhibition compared with the maximum achievable inhibition; for inhibition at 10 µM: CHO-K1, test substance 10 μM, read-out: B1R Antagonism, rat [10 μM] % Inhibition; for B1R Antagonism, rat [10 μM] % Inhibition: test substance 10 μM, rB1R CHO K1 cells
T2 construct: host or cells: CHO K1 cells (Chinese hamster ovary), stably transfected
T2 sequence (P97583 1-337): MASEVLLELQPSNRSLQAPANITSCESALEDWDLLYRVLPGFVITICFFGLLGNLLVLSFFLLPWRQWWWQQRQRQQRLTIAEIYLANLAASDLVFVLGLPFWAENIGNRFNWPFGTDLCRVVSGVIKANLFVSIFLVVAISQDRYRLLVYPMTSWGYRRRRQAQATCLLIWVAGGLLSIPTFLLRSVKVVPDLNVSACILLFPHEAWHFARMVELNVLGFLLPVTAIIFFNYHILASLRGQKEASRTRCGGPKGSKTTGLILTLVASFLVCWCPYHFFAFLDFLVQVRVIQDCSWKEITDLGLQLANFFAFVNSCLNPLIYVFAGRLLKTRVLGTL
In short: as §1

Compound | inhibition at 10 µM (human B1R receptor) [%] | inhibition at 10 µM (B1R receptor of the rat) [%] | B1R Antagonism, human [10 μM] % Inhibition (human B1R receptor) [%] | B1R Antagonism, rat [10 μM] % Inhibition (B1R receptor of the rat) [%]
COc1cc(C)c(S(=O)(=O)N2CCCCC2COCC(=O)Nc2ccc(N3CCOCC3)nc2)c(C)c1 (stereo not drawn) [Example 396, 2-((1-(4-methoxy-2,6-dimethylphenylsulfonyl)piperidin-2-yl)methoxy)-N-(6-morpholinopyridin-3-yl)acetamide] | 24.7 | 80.6 | – | –
COc1cc(C)c(S(=O)(=O)N2CCCC2COCC(=O)N2CCC(N3CCCC3)CC2)c(C)c1 (stereo not drawn) [Example 518, 2-((1-(4-methoxy-2,6-dimethylphenylsulfonyl)pyrrolidin-2-yl)methoxy)-1-(4-(pyrrolidin-1-yl)piperidin-1-yl)ethanone] | 103 | 99.7 | – | –
O=C(COCC1CCCCN1S(=O)(=O)c1ccc(Cl)c(Cl)c1)N1CCN(Cc2ccc3c(c2)OCO3)CC1 (stereo not drawn) [Example 39, 1-(4-benzo[1,3]dioxol-5-ylmethyl-piperazin-1-yl)-2-[1-(3,4-dichloro-phenylsulfonyl)-piperidin-2-ylmethoxy]-ethanone] | 73.2 | 0 | – | –
CN1CCC(N2CCN(C(=O)COCC3CCCCN3S(=O)(=O)c3cccc(Br)c3)CC2)CC1 (stereo not drawn) [Example 121, 2-((1-(3-bromophenylsulfonyl)piperidin-2-yl)methoxy)-1-(4-(1-methylpiperidin-4-yl)piperazin-1-yl)ethanone] | 70.5 | 52.7 | – | –
Cc1cc(C)c(S(=O)(=O)N2CCCCC2COCC(=O)N2CCCCC2Cc2ncccc2C)c(C)c1 (stereo not drawn) [Example 229, 2-((1-(mesitylsulfonyl)piperidin-2-yl)methoxy)-1-(2-((3-methylpyridin-2-yl)methyl)piperidin-1-yl)ethanone] | 101 | 101 | – | –
COc1cc(C)c(S(=O)(=O)N2CCCC2COCC(=O)N(Cc2ccccc2)c2cc(C)ccn2)c(C)c1 (stereo not drawn) [Example 463, N-benzyl-2-((1-(4-methoxy-2,6-dimethylphenylsulfonyl)pyrrolidin-2-yl)methoxy)-N-(4-methylpyridin-2-yl)acetamide] | 97.4 | 101 | – | –
COc1cc(C)c(S(=O)(=O)N2CCCC2COCC(=O)Nc2cccc(CN3CCCCC3)c2)c(C)c1 (stereo not drawn) [Example 471, 2-((1-(4-methoxy-2,6-dimethylphenylsulfonyl)pyrrolidin-2-yl)methoxy)-N-(3-(piperidin-1-ylmethyl)phenyl)acetamide] | 103 | 98.8 | – | –
N-(4-(2-(1H-benzo[d]imidazol-2-yl)ethyl)phenyl)-2-((1-(4-methoxy-2,6-dimethylphenylsulfonyl)pyrrolidin-2-yl)methoxy)acetamide [Example 472] | – | – | 92.06 | 101.17
Cc1cc(C)c(S(=O)(=O)N2CCCCC2COCC(=O)NCC2CCCN(Cc3ccccc3)C2)c(C)c1 (stereo not drawn) [Example 12, N-(1-benzyl-piperidin-3-ylmethyl)-2-[1-(2,4,6-trimethyl-phenylsulfonyl)-piperidin-2-ylmethoxy]-acetamide] | 99.1 | 74.9 | – | –
COc1cc(C)c(S(=O)(=O)N2CCCCC2COCC(=O)NCc2cccnc2)c(C)c1 (stereo not drawn) [Example 345, 2-((1-(4-methoxy-2,6-dimethylphenylsulfonyl)piperidin-2-yl)methoxy)-N-(pyridin-3-ylmethyl)acetamide] | 22.3 | 95.9 | – | –
COc1cc(C)c(S(=O)(=O)N2Cc3ccccc3CC2COCC(=O)N2CCN(CC3CCN(C)CC3)CC2)c(C)c1C (stereo not drawn) [Example 563, 2-((2-(4-methoxy-2,3,6-trimethylphenylsulfonyl)-1,2,3,4-tetrahydroisoquinolin-3-yl)methoxy)-1-(4-((1-methylpiperidin-4-yl)methyl)piperazin-1-yl)ethanone] | 102 | 100 | – | –
2-((1-(2,6-dichlorophenylsulfonyl)piperidin-2-yl)methoxy)-N-(2-(piperidin-1-yl)ethyl)acetamide [Example 440] | – | – | 98.07 | 95.62
